Earlier results as cited in US20240350385A1 (priority 2023, published 2024).

Tested on: patients
Settings: in vivo

| Molecule | incidence of allergic contact dermatitis |
| --- | --- |
| 2-Octyl cyanoacrylate | 2.7% |
| C=C(C#N)C(=O)OCCCC [n-Butyl cyanoacrylate] | 2.2% |
